This note sets out measurements from the OligoGym collection.

HELM strings list units from the 5' end as sugar, base in round brackets, then linkage (d deoxyribose, r ribose, m 2'-O-methyl, p phosphodiester). Strings are as the collection lists them; they lack the last nucleoside at the 3' end of the tested compound. [moe] = 2'-O-(2-methoxyethyl) (MOE); [sp] = phosphorothioate linkage; [m5C] = 5-methylcytosine

The target in this data set is LRRK2. Put plainly: mouse, dose not given. The settings on record: ASO.
On to “RNA1{[moe](G)[sp].[moe]([m5C])p.[moe]([m5C])p.[moe]([m5C])p.[moe](A)[sp].d(G)[sp].d([m5C])[sp].d([m5C])[sp].d(A)[sp].d(A)[sp].d(A)[sp].d(T)[sp].d(G)[sp].d([m5C])[sp].d(T)[sp].[moe](T)p.[moe](G)p.[moe]([m5C])[sp].[moe](A)}$$$$ (last 3' nucleoside missing)”, for which the 3 h FOB score came out at 0 score 0-7. As for “RNA1{[moe](A)[sp].[moe](T)p.[moe](G)[sp].[moe]([m5C])[sp].[moe](T)[sp].d(T)[sp].d(T)[sp].d([m5C])[sp].d(A)[sp].d(T)[sp].d(A)[sp].d(G)[sp].d([m5C])[sp].d(T)[sp].d(T)[sp].[moe]([m5C])[sp].[moe]([m5C])p.[moe](A)[sp].[moe]([m5C])}$$$$ (last 3' nucleoside missing)”, the figure is 2 score 0-7; as for “RNA1{[moe]([m5C])[sp].[moe](A)p.[moe](T)p.[moe](A)p.[moe](A)[sp].d(G)[sp].d(T)[sp].d(T)[sp].d(T)[sp].d([m5C])[sp].d(A)[sp].d(T)[sp].d(T)[sp].d([m5C])[sp].d(G)[sp].[moe](G)p.[moe](T)p.[moe](T)[sp].[moe](A)}$$$$ (last 3' nucleoside missing)”, 5 score 0-7.

“RNA1{[moe](A)[sp].[moe](G)p.[moe](G)p.[moe]([m5C])p.[moe](A)[sp].d(T)[sp].d(T)[sp].d(T)[sp].d([m5C])[sp].d(A)[sp].d(T)[sp].d(A)[sp].d(T)[sp].d(A)[sp].d(G)[sp].[moe](T)p.[moe]([m5C])p.[moe](G)[sp].[moe](G)}$$$$ (last 3' nucleoside missing)” registered a 3 h FOB score of 4 score 0-7. As for “RNA1{[moe](A)[sp].[moe](A)p.[moe](T)p.[moe](G)p.[moe]([m5C])[sp].d(T)[sp].d(T)[sp].d(T)[sp].d([m5C])[sp].d(A)[sp].d(T)[sp].d(A)[sp].d(G)[sp].d([m5C])[sp].d(T)[sp].[moe](T)p.[moe]([m5C])p.[moe]([m5C])[sp].[moe](A)}$$$$ (last 3' nucleoside missing)”, the figure is 1 score 0-7; as for “RNA1{[moe](A)[sp].[moe]([m5C])p.[moe]([m5C])p.[moe]([m5C])p.[moe](T)[sp].d(T)[sp].d(T)[sp].d([m5C])[sp].d([m5C])[sp].d(A)[sp].d(T)[sp].d(G)[sp].d(T)[sp].d(G)[sp].d(A)[sp].[moe](A)p.[moe]([m5C])p.[moe](A)[sp].[moe](T)}$$$$ (last 3' nucleoside missing)”, 4 score 0-7. As to “RNA1{[moe]([m5C])[sp].[moe](A)p.[moe](T)[sp].[moe](T)[sp].[moe]([m5C])[sp].d(G)[sp].d(G)[sp].d(T)[sp].d(T)[sp].d(A)[sp].d(T)[sp].d(A)[sp].d(A)[sp].d(G)[sp].d(G)[sp].[moe]([m5C])[sp].[moe](A)p.[moe]([m5C])[sp].[moe](A)}$$$$ (last 3' nucleoside missing)”, the 3 h FOB score stood at 7 score 0-7. Next, “RNA1{[moe]([m5C])[sp].[moe](T)p.[moe](T)[sp].[moe](T)[sp].[moe]([m5C])[sp].d(A)[sp].d(T)[sp].d(A)[sp].d(G)[sp].d([m5C])[sp].d(T)[sp].d(T)[sp].d([m5C])[sp].d([m5C])[sp].d(A)[sp].[moe]([m5C])[sp].[moe]([m5C])p.[moe](A)[sp].[moe]([m5C])}$$$$ (last 3' nucleoside missing)”: 3 score 0-7.

Substance “RNA1{[moe](T)[sp].[moe]([m5C])p.[moe](A)p.[moe](G)p.[moe](T)[sp].d(T)[sp].d([m5C])[sp].d([m5C])[sp].d(T)[sp].d(T)[sp].d([m5C])[sp].d(A)[sp].d(G)[sp].d(T)[sp].d([m5C])[sp].[moe](T)p.[moe]([m5C])p.[moe](A)[sp].[moe](A)}$$$$ (last 3' nucleoside missing)” showed a 3 h FOB score of 4 score 0-7.

“RNA1{[moe]([m5C])[sp].[moe](A)p.[moe](A)[sp].[moe](G)[sp].[moe](T)[sp].d([m5C])[sp].d([m5C])[sp].d(A)[sp].d(A)[sp].d(A)[sp].d(T)[sp].d(G)[sp].d(T)[sp].d(G)[sp].d(T)[sp].[moe]([m5C])[sp].[moe](A)p.[moe](A)[sp].[moe](A)}$$$$ (last 3' nucleoside missing)” returned a 3 h FOB score of 7 score 0-7. As for “RNA1{[moe](A)[sp].[moe](A)p.[moe](G)[sp].[moe](T)[sp].[moe]([m5C])[sp].d([m5C])[sp].d(A)[sp].d(A)[sp].d(A)[sp].d(T)[sp].d(G)[sp].d(T)[sp].d(G)[sp].d(T)[sp].d([m5C])[sp].[moe](A)[sp].[moe](A)p.[moe](A)[sp].[moe]([m5C])}$$$$ (last 3' nucleoside missing)”, the figure is 5 score 0-7. As for “RNA1{[moe](G)[sp].[moe](A)p.[moe](A)[sp].[moe](A)[sp].[moe](T)[sp].d(G)[sp].d(A)[sp].d(G)[sp].d(T)[sp].d(G)[sp].d([m5C])[sp].d(A)[sp].d(T)[sp].d(G)[sp].d(G)[sp].[moe]([m5C])[sp].[moe](A)p.[moe](T)[sp].[moe]([m5C])}$$$$ (last 3' nucleoside missing)”, the figure is 7 score 0-7. As for “RNA1{[moe](G)[sp].[moe](T)p.[moe]([m5C])p.[moe](A)p.[moe]([m5C])[sp].d([m5C])[sp].d(T)[sp].d(T)[sp].d(T)[sp].d([m5C])[sp].d([m5C])[sp].d([m5C])[sp].d(A)[sp].d(A)[sp].d(T)[sp].[moe](G)p.[moe]([m5C])p.[moe](T)[sp].[moe](T)}$$$$ (last 3' nucleoside missing)”, the figure is 0 score 0-7; as for “RNA1{[moe](G)[sp].[moe]([m5C])p.[moe]([m5C])[sp].[moe](A)[sp].[moe]([m5C])[sp].d(T)[sp].d([m5C])[sp].d(A)[sp].d(T)[sp].d(G)[sp].d(A)[sp].d(G)[sp].d(G)[sp].d(A)[sp].d([m5C])[sp].[moe](T)[sp].[moe](T)p.[moe]([m5C])[sp].[moe]([m5C])}$$$$ (last 3' nucleoside missing)”, 6 score 0-7. Consider “RNA1{[moe](A)[sp].[moe](G)p.[moe](T)p.[moe](T)p.[moe](T)[sp].d([m5C])[sp].d(A)[sp].d(T)[sp].d(T)[sp].d([m5C])[sp].d(G)[sp].d(G)[sp].d(T)[sp].d(T)[sp].d(A)[sp].[moe](T)p.[moe](A)p.[moe](A)[sp].[moe](G)}$$$$ (last 3' nucleoside missing)”, for which the 3 h FOB score was determined as 7 score 0-7.

With “RNA1{[moe](A)[sp].[moe](G)p.[moe](T)p.[moe](G)p.[moe]([m5C])[sp].d(A)[sp].d(T)[sp].d(G)[sp].d(G)[sp].d([m5C])[sp].d(A)[sp].d(T)[sp].d([m5C])[sp].d(A)[sp].d(A)[sp].[moe](A)p.[moe](A)p.[moe](A)[sp].[moe](T)}$$$$ (last 3' nucleoside missing)”, the 3 h FOB score was found to be 1 score 0-7. For the substance “RNA1{[moe]([m5C])[sp].[moe](T)p.[moe]([m5C])p.[moe](A)p.[moe](T)[sp].d(A)[sp].d(T)[sp].d([m5C])[sp].d(T)[sp].d(A)[sp].d(A)[sp].d(A)[sp].d(G)[sp].d(A)[sp].d([m5C])[sp].[moe]([m5C])p.[moe](G)p.[moe]([m5C])[sp].[moe](A)}$$$$ (last 3' nucleoside missing)”, the 3 h FOB score was 1 score 0-7.

“RNA1{[moe](A)[sp].[moe](G)p.[moe](G)p.[moe](A)p.[moe](G)[sp].d(A)[sp].d(A)[sp].d(T)[sp].d(G)[sp].d(T)[sp].d(A)[sp].d(T)[sp].d(A)[sp].d(T)[sp].d(G)[sp].[moe]([m5C])p.[moe](T)p.[moe](T)[sp].[moe]([m5C])}$$$$ (last 3' nucleoside missing)” came in with a 3 h FOB score of 6 score 0-7. As for “RNA1{[moe]([m5C])[sp].[moe](G)p.[moe]([m5C])p.[moe](A)p.[moe]([m5C])[sp].d(T)[sp].d(T)[sp].d(A)[sp].d(A)[sp].d([m5C])[sp].d(A)[sp].d(A)[sp].d(T)[sp].d(A)[sp].d(T)[sp].[moe]([m5C])p.[moe](A)p.[moe](T)[sp].[moe](A)}$$$$ (last 3' nucleoside missing)”, the figure is 0 score 0-7; as for “RNA1{[moe](T)[sp].[moe](G)p.[moe]([m5C])p.[moe](T)p.[moe]([m5C])[sp].d(T)[sp].d([m5C])[sp].d(T)[sp].d(T)[sp].d(T)[sp].d([m5C])[sp].d(T)[sp].d([m5C])[sp].d(A)[sp].d([m5C])[sp].[moe](A)p.[moe](T)p.[moe](A)[sp].[moe]([m5C])}$$$$ (last 3' nucleoside missing)”, 0 score 0-7; as for “RNA1{[moe](A)[sp].[moe](T)p.[moe](G)[sp].[moe](A)[sp].[moe](G)[sp].d(T)[sp].d(G)[sp].d([m5C])[sp].d(A)[sp].d(T)[sp].d(G)[sp].d(G)[sp].d([m5C])[sp].d(A)[sp].d(T)[sp].[moe]([m5C])[sp].[moe](A)p.[moe](A)[sp].[moe](A)}$$$$ (last 3' nucleoside missing)”, 6 score 0-7. Next, “RNA1{[moe](T)[sp].[moe](T)p.[moe](A)[sp].[moe](A)[sp].[moe]([m5C])[sp].d(A)[sp].d(A)[sp].d(T)[sp].d(A)[sp].d(T)[sp].d([m5C])[sp].d(A)[sp].d(T)[sp].d(A)[sp].d(T)[sp].[moe](A)[sp].[moe](A)p.[moe](T)[sp].[moe]([m5C])}$$$$ (last 3' nucleoside missing)”: 0 score 0-7.

With “RNA1{[moe]([m5C])[sp].[moe](T)p.[moe](T)p.[moe]([m5C])p.[moe](A)[sp].d(G)[sp].d(T)[sp].d(T)[sp].d([m5C])[sp].d([m5C])[sp].d(T)[sp].d(T)[sp].d([m5C])[sp].d(A)[sp].d(G)[sp].[moe](T)p.[moe]([m5C])p.[moe](T)[sp].[moe]([m5C])}$$$$ (last 3' nucleoside missing)”, the 3 h FOB score stood at 4 score 0-7. Next, “RNA1{[moe](G)[sp].[moe]([m5C])p.[moe](A)[sp].[moe](A)[sp].[moe](G)[sp].d(T)[sp].d([m5C])[sp].d([m5C])[sp].d(A)[sp].d(A)[sp].d(A)[sp].d(T)[sp].d(G)[sp].d(T)[sp].d(G)[sp].[moe](T)[sp].[moe]([m5C])p.[moe](A)[sp].[moe](A)}$$$$ (last 3' nucleoside missing)”: 6 score 0-7.
